Data from US20100285959A1, “HERBICIDAL MIXTURES” (priority 2006, published 2010).

Tests used:
galium (GALAP) = test: Test 21 growth chamber, postemergence; type: in vivo, Galium aparine; details: 19 DAA
Protocol: (§1) A test was conducted to evaluate the effects on winter barley (HORVW, Hordeum vulgare L.), winter wheat (TRZAW, Triticum aestivum L.), and several weed species, of mixtures of Compound 2 with the commercial herbicide (2,4-dichlorophenoxy)acetic acid (2,4-D), an auxin mimic. […] Plants were treated postemergence at the 2-4 leaf growth stage, and each treatment was replicated one time. […] Plants were watered as needed. […] Results are from single replicates.

winter wheat (TRZAW) = test: Test 22 growth chamber, postemergence; type: in vivo, Triticum aestivum; details: 25 DAA; 2,4-D or MCPA alone 250 g a.i./ha
Protocol: as §1, with “species” for “species,”, “herbicides” for “herbicide”, “(2,4-D) and (4-chloro-2-methylphenoxy)acetic acid (MCPA),” for “(2,4-D), an”, “mimics.” for “mimic.”, “stage, except KCHSC, SASKR” for “stage,”, “STEME which were in the 4-8 leaf growth stage. Each” for “each”

winter barley (HORVW) = test: Test 20 growth chamber, postemergence; type: in vivo, Hordeum vulgare; details: 25 DAA; 2,4-D or MCPA alone 250 g a.i./ha
Protocol: A test was conducted to evaluate the effects on winter barley (HORVW, Hordeum vulgare L.) and winter wheat (TRZAW, Triticum aestivum L.) of mixtures of Compound 2 with the commercial herbicides (2,4-dichlorophenoxy)acetic acid (2,4-D) and (4-chloro-2-methylphenoxy)acetic acid (MCPA), auxin mimics. […] Plants were treated postemergence at the 2-leaf growth stage, and each treatment was replicated a total of four times (three times in the loam/sand blend and one time in RediEarth). […] Plants were watered as needed. […] Results are the means of the four replicates.

wild mustard (SINAR) [1] = test: Test 22 growth chamber, postemergence; type: in vivo, Sinapis arvensis; details: 25 DAA; 2,4-D or MCPA alone 250 g a.i./ha
Protocol: as §1, with “species” for “species,”, “herbicides” for “herbicide”, “(2,4-D) and (4-chloro-2-methylphenoxy)acetic acid (MCPA),” for “(2,4-D), an”, “mimics.” for “mimic.”, “stage, except KCHSC, SASKR” for “stage,”, “STEME which were in the 4-8 leaf growth stage. Each” for “each”

wild mustard (SINAR) [2] = test: Test 21 growth chamber, postemergence; type: in vivo, Sinapis arvensis; details: 19 DAA
Protocol: as §1

field violet (VIOAR) = test: Test 21 growth chamber, postemergence; type: in vivo, Viola arvensis; details: 19 DAA
Protocol: as §1

yellow nutsedge (CYPES) = test: Test 2 field trial, preemergence; type: in vivo, Cyperus esculentus; parameters: scale not given here
From the text: (§2) Corn seeds (hybrid ‘Pioneer 31G96’) were planted in mid spring season, 3.8 cm deep in a clay loam soil having 2% organic matter and a pH of 6.6. Plots were 6.1 m long by 3.0 m wide with rows spaced 76 cm apart. Seeds were spaced 15 cm apart within the rows. The field was managed using conventional tillage practices. […] A few of the weed species could not be evaluated at every timing. […] Results are the means of the three replicates.

common ragweed (AMBEL) = test: Test 2 field trial, preemergence; type: in vivo, Ambrosia artemisiifolia; parameters: scale not given here
From the text: as §2

velvetleaf (ABUTH) = test: Test 2 field trial, preemergence; type: in vivo, Abutilon theophrasti; parameters: scale not given here
From the text: as §2

[3] = 18 DAA, g a.i./ha: Cpd 2 25, Atrazine 250
[4] = 18 DAA, g a.i./ha: Cpd 2 50, Atrazine 500
[5] = 18 DAA, g a.i./ha: Cpd 2 75, Atrazine 750
[6] = 18 DAA, g a.i./ha: Cpd 2 100, Atrazine 1000
[7] = 18 DAA, g a.i./ha: Cpd 2 150, Atrazine 1500
[8] = 28 DAA, g a.i./ha: Cpd 2 25, Atrazine 250
[9] = 28 DAA, g a.i./ha: Cpd 2 50, Atrazine 500
[10] = 28 DAA, g a.i./ha: Cpd 2 75, Atrazine 750
[11] = 28 DAA, g a.i./ha: Cpd 2 100, Atrazine 1000
[12] = 28 DAA, g a.i./ha: Cpd 2 150, Atrazine 1500
[13] = 55 DAA, g a.i./ha: Cpd 2 25, Atrazine 250
[14] = 55 DAA, g a.i./ha: Cpd 2 50, Atrazine 500
[15] = 55 DAA, g a.i./ha: Cpd 2 75, Atrazine 750
[16] = 55 DAA, g a.i./ha: Cpd 2 100, Atrazine 1000
[17] = 55 DAA, g a.i./ha: Cpd 2 150, Atrazine 1500

**Q.** O=C(O)COc1ccc(Cl)cc1Cl [2,4-D, (2,4-dichlorophenoxy)acetic acid] was tested. Which “Postemergence GALAP Obs” value (galium (GALAP); 2,4-D alone 125 g a.i./ha) did it give?
**A.** Its value is 30.

**Q.** And the “Postemergence GALAP Obs” value (galium (GALAP); 2,4-D alone 250 g a.i./ha)?
**A.** The value was 35.

**Q.** What about the “Postemergence TRZAW Obs” value (winter wheat (TRZAW)) of the same compound?
**A.** The value was 20.

**Q.** What about the “Postemergence HORVW Obs” value (winter barley (HORVW)) of the same compound?
**A.** The value was 26.

**Q.** And the “Postemergence SINAR Obs” value (wild mustard (SINAR) [1])?
**A.** The value was 75.

**Q.** What about the “Postemergence SINAR Obs” value (wild mustard (SINAR) [2]; 2,4-D alone 125 g a.i./ha) of the same compound?
**A.** The value was 85.

**Q.** And the “Postemergence SINAR Obs” value (wild mustard (SINAR) [2]; 2,4-D alone 250 g a.i./ha)?
**A.** Its value is 65.

**Q.** What about the “Postemergence VIOAR Obs” value (field violet (VIOAR); 2,4-D alone 125 g a.i./ha) of the same compound?
**A.** Its value is 0.

**Q.** And the “Postemergence VIOAR Obs” value (field violet (VIOAR); 2,4-D alone 250 g a.i./ha)?
**A.** The value was 20.

**Q.** For CCNc1nc(Cl)nc(NC(C)C)n1 [Atrazine, atrazine, reference compound], which “CYPES Obs” value (yellow nutsedge (CYPES); [3]) is on record?
**A.** Its value is 13.

**Q.** What about the “CYPES Obs” value (yellow nutsedge (CYPES); [4]) of the same compound?
**A.** The value was 18.

**Q.** What about the “CYPES Obs” value (yellow nutsedge (CYPES); [5]) of the same compound?
**A.** Its value is 40.

**Q.** What about the “CYPES Obs” value (yellow nutsedge (CYPES); [6]) of the same compound?
**A.** Its value is 28.

**Q.** What about the “CYPES Obs” value (yellow nutsedge (CYPES); [7]) of the same compound?
**A.** Its value is 27.

**Q.** What about the “CYPES Obs” value (yellow nutsedge (CYPES); [8]) of the same compound?
**A.** The value was 0.

**Q.** And the “CYPES Obs” value (yellow nutsedge (CYPES); [9])?
**A.** Its value is 5.

**Q.** And the “CYPES Obs” value (yellow nutsedge (CYPES); [10])?
**A.** Its value is 0.

**Q.** What about the “CYPES Obs” value (yellow nutsedge (CYPES); [11]) of the same compound?
**A.** The value was 2.

**Q.** What about the “CYPES Obs” value (yellow nutsedge (CYPES); [12]) of the same compound?
**A.** The value was 0.

**Q.** And the “CYPES Obs” value (yellow nutsedge (CYPES); [13])?
**A.** Its value is 10.

**Q.** What about the “CYPES Obs” value (yellow nutsedge (CYPES); [14]) of the same compound?
**A.** The value was 13.

**Q.** What about the “CYPES Obs” value (yellow nutsedge (CYPES); [15]) of the same compound?
**A.** Its value is 0.

**Q.** What about the “CYPES Obs” value (yellow nutsedge (CYPES); [16]) of the same compound?
**A.** The value was 62.

**Q.** What about the “CYPES Obs” value (yellow nutsedge (CYPES); [17]) of the same compound?
**A.** The value was 60.

**Q.** And the “AMBEL Obs” value (common ragweed (AMBEL); [3])?
**A.** Its value is 20.

**Q.** And the “AMBEL Obs” value (common ragweed (AMBEL); [4])?
**A.** Its value is 43.

**Q.** And the “AMBEL Obs” value (common ragweed (AMBEL); [5])?
**A.** Its value is 57.

**Q.** What about the “AMBEL Obs” value (common ragweed (AMBEL); [6]) of the same compound?
**A.** Its value is 40.

**Q.** And the “AMBEL Obs” value (common ragweed (AMBEL); [7])?
**A.** The value was 48.

**Q.** And the “AMBEL Obs” value (common ragweed (AMBEL); [8])?
**A.** Its value is 18.

**Q.** What about the “AMBEL Obs” value (common ragweed (AMBEL); [9]) of the same compound?
**A.** The value was 69.

**Q.** And the “AMBEL Obs” value (common ragweed (AMBEL); [10])?
**A.** The value was 83.

**Q.** What about the “AMBEL Obs” value (common ragweed (AMBEL); [11]) of the same compound?
**A.** Its value is 86.

**Q.** What about the “AMBEL Obs” value (common ragweed (AMBEL); [12]) of the same compound?
**A.** The value was 98.

**Q.** What about the “AMBEL Obs” value (common ragweed (AMBEL); [13]) of the same compound?
**A.** Its value is 12.

**Q.** And the “AMBEL Obs” value (common ragweed (AMBEL); [14])?
**A.** Its value is 22.

**Q.** What about the “AMBEL Obs” value (common ragweed (AMBEL); [15]) of the same compound?
**A.** The value was 63.

**Q.** And the “AMBEL Obs” value (common ragweed (AMBEL); [16])?
**A.** The value was 72.

**Q.** What about the “AMBEL Obs” value (common ragweed (AMBEL); [17]) of the same compound?
**A.** The value was 90.

**Q.** What about the “ABUTH Obs” value (velvetleaf (ABUTH); [3]) of the same compound?
**A.** Its value is 15.

**Q.** What about the “ABUTH Obs” value (velvetleaf (ABUTH); [4]) of the same compound?
**A.** The value was 45.

**Q.** What about the “ABUTH Obs” value (velvetleaf (ABUTH); [5]) of the same compound?
**A.** The value was 55.

**Q.** And the “ABUTH Obs” value (velvetleaf (ABUTH); [6])?
**A.** Its value is 62.

**Q.** And the “ABUTH Obs” value (velvetleaf (ABUTH); [7])?
**A.** The value was 64.

**Q.** What about the “ABUTH Obs” value (velvetleaf (ABUTH); [8]) of the same compound?
**A.** Its value is 37.

**Q.** What about the “ABUTH Obs” value (velvetleaf (ABUTH); [9]) of the same compound?
**A.** The value was 78.

**Q.** What about the “ABUTH Obs” value (velvetleaf (ABUTH); [10]) of the same compound?
**A.** The value was 85.

**Q.** What about the “ABUTH Obs” value (velvetleaf (ABUTH); [11]) of the same compound?
**A.** Its value is 98.

**Q.** What about the “ABUTH Obs” value (velvetleaf (ABUTH); [12]) of the same compound?
**A.** Its value is 99.

**Q.** And the “ABUTH Obs” value (velvetleaf (ABUTH); [13])?
**A.** Its value is 68.

**Q.** What about the “ABUTH Obs” value (velvetleaf (ABUTH); [14]) of the same compound?
**A.** The value was 63.

**Q.** What about the “ABUTH Obs” value (velvetleaf (ABUTH); [15]) of the same compound?
**A.** Its value is 87.

**Q.** What about the “ABUTH Obs” value (velvetleaf (ABUTH); [16]) of the same compound?
**A.** The value was 100.

**Q.** What about the “ABUTH Obs” value (velvetleaf (ABUTH); [17]) of the same compound?
**A.** Its value is 99.
